The record followed here is patent publication US12496301B2, “Use of androgen receptor degrader for the treatment of spinal and bulbar muscular atrophy” (Arvinas Operations, Inc., priority 2023, dated 2025).

Test [1] deals with T1, endogenous mouse AR (Mus musculus, UniProt P19091).
T1 construct: from tissue; host or cells: mouse LABC muscle (C57Bl/6 and hAR100Q mice); quadriceps (hAR100Q mice)
T1 sequence (P19091 1-899): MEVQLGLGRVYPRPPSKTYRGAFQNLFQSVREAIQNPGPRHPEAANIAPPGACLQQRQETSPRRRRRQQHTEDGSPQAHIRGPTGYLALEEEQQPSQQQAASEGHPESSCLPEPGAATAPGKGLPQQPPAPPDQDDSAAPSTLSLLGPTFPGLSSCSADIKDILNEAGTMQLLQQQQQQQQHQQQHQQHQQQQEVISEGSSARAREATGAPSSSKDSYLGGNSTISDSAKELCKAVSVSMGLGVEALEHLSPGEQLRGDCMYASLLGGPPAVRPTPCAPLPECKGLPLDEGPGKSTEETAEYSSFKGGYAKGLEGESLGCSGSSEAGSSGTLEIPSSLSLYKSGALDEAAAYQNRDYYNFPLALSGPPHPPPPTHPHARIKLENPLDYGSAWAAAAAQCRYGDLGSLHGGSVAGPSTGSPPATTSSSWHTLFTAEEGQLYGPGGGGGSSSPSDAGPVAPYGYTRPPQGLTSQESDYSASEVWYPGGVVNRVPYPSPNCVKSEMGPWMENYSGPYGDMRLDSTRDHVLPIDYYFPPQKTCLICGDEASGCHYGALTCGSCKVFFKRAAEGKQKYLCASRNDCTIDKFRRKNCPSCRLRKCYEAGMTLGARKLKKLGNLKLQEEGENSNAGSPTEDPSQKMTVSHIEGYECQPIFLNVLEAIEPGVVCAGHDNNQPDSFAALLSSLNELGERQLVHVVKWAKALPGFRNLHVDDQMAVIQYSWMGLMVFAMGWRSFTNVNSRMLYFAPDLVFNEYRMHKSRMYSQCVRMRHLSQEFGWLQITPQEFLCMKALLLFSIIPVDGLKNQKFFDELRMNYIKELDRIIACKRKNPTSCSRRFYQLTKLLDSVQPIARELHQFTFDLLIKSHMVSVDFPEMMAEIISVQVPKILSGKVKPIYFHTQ
Put plainly: Endogenous mouse AR degradation in muscle of hAR100Q mice, capillary immunoassay. Format: in vivo. On the procedure: (§1) Mouse endogenous AR, human AR100Q, and high molecular weight hAR100Q from hAR100Q mice were quantified by capillary immunoassay. Tissue lysates were prepared as described above using antibodies to AR and resolved by capillary electrophoresis (ProteinSimple). High molecular weight AR was quantified as the area under the curve (AUC) from 300 to 600 kDa.
(§2) A parallel cohort of hAR100Q mice was maintained in order to evaluate AR degradation at the 11-week timepoint. hAR100Q mice in this tissue cohort were fed chow identical to the mice that underwent muscle strength and endurance tests and were euthanized at 11-weeks of age.

Test [2] concerns the target T2, human AR100Q (Homo sapiens, UniProt P10275, INS80QQQQQQQQQQQQQQQQQQQQQQQQQQQQQQQQQQQQQQQQQQQQQQQQQQQQQQQQQQQQQQQQQQQQQQQQQQQQQ).
T2 construct: full-length human AR harboring 100 CAG repeats in exon 1 (hAR100Q); from tissue; host or cells: LABC and quadriceps muscle of transgenic hAR100Q mice (C57BL/6J background, pCAGGS promoter)
Put plainly: hAR100Q (polyQ-AR) degradation in muscle of hAR100Q mice, capillary immunoassay. The test is classed as in vivo. On the procedure:
as §1, §2

The test system of test [3] is human AR100Q. The description is as above. Format: in vivo. The procedure: as §1, §2
Test [4] deals with AR. Nature of the test: AR degradation in hiPSC myotubes in the presence of dihydrotestosterone (DHT). The test is classed as cell-based, human. The source says: FIG. 11 is a representative dose response curve showing mean AR concentration in DMSO treated cells plotted against Compound A concentration in SBMA patient-derived hiPSC lines differentiated into myotubes.
Control and SBMA hiPSCs were differentiated into myotubes as previously described (Caron, L. et al. 2016, STEM CELLS Transl. Med. 5, 1145-1161) using the skeletal muscle differentiation kit (Amsbio). hiPSCs were dissociated to single cells using Accutase and plated on Geltrex-coated 10 cm culture plates at a density of 200,000 cells per plate with SBMA hiPSCs in skeletal muscle induction media (SKM01, AMSBIO). Media changes were performed every second day until cells were confluent (˜7 days). The resulting myogenic precursor cells were then dissociated to single cells using Accutase and replated on Matrigel-coated 24-well tissue culture plate with 500 μL of cells at 35,000 cells per mL in skeletal myoblast media (SKM02, AMSBIO). Half media changes were performed every second day until myoblasts reached confluence (˜7 days). The media was then switched to myotube medium (SKM03, ASMBIO). Media changes every second day until myotube formation was confirmed by microscopy. […] AR protein was measured by capillary electrophoresis. […]

The mark [5] stands for this setting: LABC, 11 weeks of age, chow approx. 15 mg/kg.

“Also recorded” adds a separate entry of the source. Read-outs that look alike come from different tables or passages of the source.

T2 sequence (P10275 with tags, fused parts or gaps with the stated changes): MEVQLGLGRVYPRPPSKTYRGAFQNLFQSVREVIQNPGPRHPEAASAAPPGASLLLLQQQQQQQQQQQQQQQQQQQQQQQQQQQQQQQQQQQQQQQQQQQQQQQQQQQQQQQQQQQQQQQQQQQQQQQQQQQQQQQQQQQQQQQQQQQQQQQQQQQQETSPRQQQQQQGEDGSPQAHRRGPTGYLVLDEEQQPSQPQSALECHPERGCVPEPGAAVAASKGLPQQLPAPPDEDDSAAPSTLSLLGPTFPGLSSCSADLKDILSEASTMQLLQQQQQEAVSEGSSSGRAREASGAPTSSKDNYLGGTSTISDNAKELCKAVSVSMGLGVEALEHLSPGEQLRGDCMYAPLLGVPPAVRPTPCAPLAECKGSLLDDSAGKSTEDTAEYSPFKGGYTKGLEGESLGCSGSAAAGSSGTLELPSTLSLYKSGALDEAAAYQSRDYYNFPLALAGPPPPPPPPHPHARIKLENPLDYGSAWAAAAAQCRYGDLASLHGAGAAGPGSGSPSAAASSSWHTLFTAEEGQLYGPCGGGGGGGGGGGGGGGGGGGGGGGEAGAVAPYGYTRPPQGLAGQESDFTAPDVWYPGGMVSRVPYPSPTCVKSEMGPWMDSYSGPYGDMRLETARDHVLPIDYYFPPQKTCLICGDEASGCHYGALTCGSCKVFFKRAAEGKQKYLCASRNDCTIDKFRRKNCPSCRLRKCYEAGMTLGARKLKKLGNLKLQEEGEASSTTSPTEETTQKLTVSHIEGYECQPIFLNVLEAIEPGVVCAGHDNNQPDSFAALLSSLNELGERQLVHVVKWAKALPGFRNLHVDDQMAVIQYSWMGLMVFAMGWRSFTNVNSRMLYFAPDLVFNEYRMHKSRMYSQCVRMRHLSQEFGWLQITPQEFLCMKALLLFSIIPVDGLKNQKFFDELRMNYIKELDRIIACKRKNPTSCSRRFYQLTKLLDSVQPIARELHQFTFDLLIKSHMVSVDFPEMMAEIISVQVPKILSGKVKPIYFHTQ

Regarding `CC(C)N(CC1CCN(c2ncc(C(=O)N[C@H]3C(C)(C)[C@H](Oc4ccc(C#N)c(Cl)c4)C3(C)C)cn2)CC1)[C@H]1C[C@H](Oc2ccc3c(c2)C(=O)N(C2CCC(=O)NC2=O)C3=O)C1` (stereo partly drawn) [Compound A, N-((1r,3r)-3-(3-chloro-4-cyanophenoxy)-2,2,4,4-tetramethylcyclobutyl)-2-(4-((((1r,3r)-3-((2-(2,6-dioxopiperidin-3-yl)-1,3-dioxoisoindolin-5-yl)oxy)cyclobutyl)(isopropyl)amino)methyl)piperidin-1-yl)pyrimidine-5-carboxamide], the “reduction of endogenous mouse (WT) AR in LABC vs vehicle” value in test [1] (setting [5]) was 77%. In addition, the “reduction of WT AR in quadriceps vs vehicle” value in test [1] (quadriceps) is 65%. Also, the “reduction of high molecular weight (aggregated) hAR100Q in LABC” value in test [2] (LABC, 11 weeks of age) is reported as “did not induce degradation; also recorded: did not reach significance”. Besides, in test [2] (quadriceps), the “reduction of high molecular weight polyQ-AR (HMW hAR100Q) in quadriceps” value was “trended towards a reduction”. Also, the “reduction of monomeric hAR100Q (polyQ-AR) in LABC vs vehicle” value in test [3] (setting [5]) came to 70%. The “reduction of polyQ-AR (hAR100Q) in quadriceps” value in test [3] (quadriceps) was 43%. In test [3] (quadriceps, AR and polyQ-AR together), the “AR/polyQ-AR degraded in the quadriceps muscle” value is listed as 40-60%. The DC50 (as a rule, the concentration at which degradation of the target reaches its halfway point) in test [4] (DHT present at 500 pM, read-out: DC50 in hiPSC myotubes with DHT) is 5.9 nM; in test [4] (without any DHT (0 pM), read-out: DC50 in hiPSC myotubes without DHT) it was 0.5 nM.
